{"source": "patent US9814758B2", "about": "“Inhibitors of apoptosis and uses thereof” (CENTRE NATIONAL DE LA RECHERCHE SCIENTIFIQUE-CNRS, priority 2010, dated 2017)", "test_system": "primary cardiomyocytes", "assay": "STS-induced DNA fragmentation (Cell Death detection ELISA PLUS) in primary cardiomyocytes", "format": "cell-based, mouse", "settings": "for reduction of DNA fragmentation: peptide given together with staurosporine, 1 μM, related to STS-treated cells (=100%), FIG. 5B", "method": "FIG. 5: In vitro evaluation of the anti-apoptotic activity of CPPs and CPP-conjugates. Workflow and quantitation of DNA fragmentation in (A) C2C12 cells, (B) primary cardiomyocytes, (C) H9c2 cells and (D) NG108-15 cells. Data were normalized to 100% STS. Data shown are the means±SEM, with n≧5. Cells were seeded in 24-well plates and grown overnight. The next day, the cells were incubated with STS alone or with STS+1 μM peptide (in OPTI-MEM) (OPTI-MEM® is a modification of Eagle's Minimum Essential Media, buffered with HEPES and sodium bicarbonate, and supplemented with hypoxanthine, thymidine, sodium pyruvate, L-glutamine, trace elements, and growth factors) (STS concentration and incubation time for each cells are given in the figure). Thereafter, solutions were removed, replaced by complete medium and further incubated for 40 h. Following the regeneration phase, the cells were lyzed and DNA fragmentation was detected according to manufacturer's instructions (Cell Death detection ELISA^PLUS kit—Roche Diagnostics).\nFIG. 6: Anti-apoptotic activity of variants of the Tat-DAXXp sequence on primary cardiomyocytes. As described in the caption of FIG. 5, the different analogues of the DAXXp sequence (see Table 2) were assessed for anti-apoptotic properties against STS (Cell Death detection ELISA^PLUS kit—Roche Diagnostics) (A-B). None of the analogues were able to protect the primary cardiomyocytes—a fact which confirms that the 16mer DAXXp has the optimal length and sequence for highest cardioprotective effect.\nFIG. 7: Comparison of the murine/rat DAXXp with the human DAXXp sequence in terms of anti-apoptotic activity on C2C12 cells, primary cardiomyocytes, and H9c2. The murine DAXXp sequence conjugated to Tat (Tat-mDAXXp—SEQ ID NO: 61) which is identical to the rat DAXXp sequence (see FIG. 1B), was compared to the human construct (Tat-DAXXp) in terms of anti-apoptotic properties against STS (Cell Death detection ELISA^PLUS kit—Roche Diagnostics). The C2C12 cells and the primary cardiomyocytes used were from mice and the H9c2 cells from rat.\nFIG. 9: Comparison of FADDp constructs with Tat-DAXXp in terms of anti-apoptotic activity in primary cardiomyocytes and in H9c2 cells. Quantification of DNA normalized to 100% STS. Data shown are the means±SEM, with n≧5. Cells were seeded in 24-well plates and grown overnight. The next day, the cells were incubated with STS alone or with STS+1 μM peptide (in OPTI-MEM®) (OPTI-MEM® is a modification of Eagle's Minimum Essential Media, buffered with HEPES and sodium bicarbonate, and supplemented with hypoxanthine, thymidine, sodium pyruvate, L-glutamine, trace elements, and growth factors) (STS concentration is given in the figure and incubation time is given in FIG. 5). Thereafter, solutions were removed, replaced by complete medium and further incubated for 40 hours. Following the regeneration phase, the cells were lyzed and DNA fragmentation was detected according to manufacturer's instructions (Cell Death detection ELISA^PLUS kit—Roche Diagnostics).\nFIG. 10: Comparison of Tat-DAXXp and Tat-FADDp15 alone and in combination in primary cardiomyocytes (A) and in H9c2 cells (B).\nThereafter, the capacity of these peptides to inhibit apoptosis induced by staurosporine was evaluated. Apoptosis was determined using the Cell Death detection ELISA^PLUS kit (Roche) measuring the DNA fragmentation.\nIn most publications, anti-apoptotic peptides currently available in the art are administrated 3-4 hours prior to apoptosis induction, which is poorly relevant to a clinical application. For that reason, the protocol used in the present study included administration of the peptides together with the staurosporine. […] This was not observed with CPP alone or with the Tat-scrDAXXp or Tat-ncDAXXp negative controls. […] To better compare the results, the DNA fragmentation (described by the enrichment factor) is related to the staurosporine-treated cells (=100%).", "note": "Non-standard residues stand in square brackets, D forms with d. Residues, ends and D or L forms follow the SMILES beside them. No end group written: not given here. Ahx = NCCCCCC(=O)O"}
{"compound": "GRKKRRQRRRPPQKKSRKEKKQTGSGPLG-NH2 [Tat-DAXXp, GRKKRRQRRRPPQ-KKSRKEKKQTGSGPLG-NH2]", "values": [{"measurement": "reduction of DNA fragmentation", "result": 44, "unit": "%"}]}
{"compound": "KKSRKEKKQTGSGPLG-NH2 [DAXXp, KKSRKEKKQTGSGPLG-NH2]", "values": [{"measurement": "ability to decrease cell apoptosis / protect the cells", "setting": "against STS", "result": "capable of decreasing cell apoptosis"}]}
{"compound": "CC[C@H](C)[C@H](NC(=O)[C@H](Cc1c[nH]cn1)NC(=O)[C@@H](NC(=O)[C@H](CCCNC(=N)N)NC(=O)CCCCCNC(=O)[C@H](CCCNC(=N)N)NC(=O)[C@H](CCCNC(=N)N)NC(=O)CCCCCNC(=O)[C@H](CCCNC(=N)N)NC(=O)[C@H](CCCNC(=N)N)NC(=O)CCCCCNC(=O)[C@@H](N)CCCNC(=N)N)[C@@H](C)CC)C(=O)N[C@@H](CC(C)C)C(=O)N[C@@H](Cc1ccccc1)C(=O)N[C@@H](CCC(N)=O)C(=O)N[C@@H](CC(N)=O)C(=O)N[C@H](CCCNC(=N)N)C(=O)N[C@@H](CCCNC(=N)N)C(=O)N[C@@H](CCSC)C(=O)N[C@@H](CCCCN)C(=O)N[C@@H](Cc1c[nH]c2ccccc12)C(=O)N[C@@H](Cc1c[nH]cn1)C(=O)N[C@@H](CCCCN)C(=O)N[C@@H](CCCCN)C(=O)N[C@@H](CCCCN)C(=O)N[C@@H](CO)C(=O)N[C@@H](CCCNC(=N)N)C(=O)N[C@@H](CCCCN)C(=O)N[C@@H](CCC(=O)O)C(=O)N[C@@H](CCCCN)C(=O)N[C@@H](CCCCN)C(=O)N[C@@H](CCC(N)=O)C(=O)N[C@H](C(=O)NCC(=O)N[C@@H](CO)C(=O)NCC(=O)N1CCC[C@H]1C(=O)N[C@@H](CC(C)C)C(=O)NCC(N)=O)[C@@H](C)O", "note": "[Pip2b-DAXXp, (RXR)3-IHILFQNrRMKWHK-KKSRKEKKQTGSGPLG-NH2] (H-R[Ahx]RR[Ahx]RR[Ahx]RIHILFQN[dR]RMKWHKKKSRKEKKQTGSGPLG-NH2; N-terminus assumed)", "values": [{"measurement": "reduction of DNA fragmentation", "result": 55, "unit": "%"}]}
